According to US11661431B2, “Thienopyrrole compounds” (Gilead Sciences, Inc., priority 2021, dated 2023):

How the values were obtained:
TLR8 = TLR8 (Homo sapiens (Human), UniProt Q9NR97); test: TLR8 human peripheral blood mononuclear cell (PBMC) cell-based assay (Compound A as agonist; TNFα and IL12p40 readout); conditions: human PBMCs, TLR8 agonist Compound A at 800 nM, 6 hours, antagonist potency; read-out: TLR-8 EC50
TLR7 = TLR7 (Homo sapiens (Human), UniProt Q9NYK1); test: TLR7 human peripheral blood mononuclear cell (PBMC) cell-based assay (GS-986 as agonist; IL-6 and IFNα readout); conditions: human PBMCs, TLR7 agonist GS-986 at 400 nM, 6 hours, antagonist potency; read-out: TLR-7 EC50
How it was run: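 IL-6 and IFNα released into supernatant were quantified by electrochemiluminescence immunoassay. Before that, human PBMCs at 100,000 per well received a 10-point antagonist titration for 1 h, then TLR7 agonist for 6 more hours, all at 37 °C, 5% CO2.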

Sequence of TLR7 (Q9NYK1 27-1049): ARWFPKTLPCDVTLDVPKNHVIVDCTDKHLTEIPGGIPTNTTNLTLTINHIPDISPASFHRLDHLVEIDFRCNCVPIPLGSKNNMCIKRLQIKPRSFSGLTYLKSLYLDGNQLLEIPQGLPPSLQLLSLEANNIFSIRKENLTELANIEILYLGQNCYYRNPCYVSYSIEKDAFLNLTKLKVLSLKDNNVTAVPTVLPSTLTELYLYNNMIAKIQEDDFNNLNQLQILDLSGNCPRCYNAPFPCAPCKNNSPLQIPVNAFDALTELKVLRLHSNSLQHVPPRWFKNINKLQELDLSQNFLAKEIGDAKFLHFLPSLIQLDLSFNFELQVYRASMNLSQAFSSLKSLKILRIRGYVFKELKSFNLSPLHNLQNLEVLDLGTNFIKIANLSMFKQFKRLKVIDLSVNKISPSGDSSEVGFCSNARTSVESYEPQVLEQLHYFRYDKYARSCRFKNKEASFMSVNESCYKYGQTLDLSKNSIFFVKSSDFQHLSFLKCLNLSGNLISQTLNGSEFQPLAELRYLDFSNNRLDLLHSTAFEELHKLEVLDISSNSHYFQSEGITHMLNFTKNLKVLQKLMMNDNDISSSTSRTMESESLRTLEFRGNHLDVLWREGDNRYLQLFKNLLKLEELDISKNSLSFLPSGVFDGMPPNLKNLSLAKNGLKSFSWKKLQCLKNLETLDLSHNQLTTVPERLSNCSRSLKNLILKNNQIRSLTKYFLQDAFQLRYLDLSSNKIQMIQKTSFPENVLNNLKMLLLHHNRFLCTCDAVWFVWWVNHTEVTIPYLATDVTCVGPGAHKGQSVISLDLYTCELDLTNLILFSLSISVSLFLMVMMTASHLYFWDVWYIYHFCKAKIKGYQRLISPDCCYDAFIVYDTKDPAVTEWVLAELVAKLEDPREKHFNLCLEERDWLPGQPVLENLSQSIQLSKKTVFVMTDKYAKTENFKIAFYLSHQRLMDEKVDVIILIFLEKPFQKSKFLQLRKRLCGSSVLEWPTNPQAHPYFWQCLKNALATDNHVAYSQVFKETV
Sequence of TLR8 (Q9NR97 27-1041): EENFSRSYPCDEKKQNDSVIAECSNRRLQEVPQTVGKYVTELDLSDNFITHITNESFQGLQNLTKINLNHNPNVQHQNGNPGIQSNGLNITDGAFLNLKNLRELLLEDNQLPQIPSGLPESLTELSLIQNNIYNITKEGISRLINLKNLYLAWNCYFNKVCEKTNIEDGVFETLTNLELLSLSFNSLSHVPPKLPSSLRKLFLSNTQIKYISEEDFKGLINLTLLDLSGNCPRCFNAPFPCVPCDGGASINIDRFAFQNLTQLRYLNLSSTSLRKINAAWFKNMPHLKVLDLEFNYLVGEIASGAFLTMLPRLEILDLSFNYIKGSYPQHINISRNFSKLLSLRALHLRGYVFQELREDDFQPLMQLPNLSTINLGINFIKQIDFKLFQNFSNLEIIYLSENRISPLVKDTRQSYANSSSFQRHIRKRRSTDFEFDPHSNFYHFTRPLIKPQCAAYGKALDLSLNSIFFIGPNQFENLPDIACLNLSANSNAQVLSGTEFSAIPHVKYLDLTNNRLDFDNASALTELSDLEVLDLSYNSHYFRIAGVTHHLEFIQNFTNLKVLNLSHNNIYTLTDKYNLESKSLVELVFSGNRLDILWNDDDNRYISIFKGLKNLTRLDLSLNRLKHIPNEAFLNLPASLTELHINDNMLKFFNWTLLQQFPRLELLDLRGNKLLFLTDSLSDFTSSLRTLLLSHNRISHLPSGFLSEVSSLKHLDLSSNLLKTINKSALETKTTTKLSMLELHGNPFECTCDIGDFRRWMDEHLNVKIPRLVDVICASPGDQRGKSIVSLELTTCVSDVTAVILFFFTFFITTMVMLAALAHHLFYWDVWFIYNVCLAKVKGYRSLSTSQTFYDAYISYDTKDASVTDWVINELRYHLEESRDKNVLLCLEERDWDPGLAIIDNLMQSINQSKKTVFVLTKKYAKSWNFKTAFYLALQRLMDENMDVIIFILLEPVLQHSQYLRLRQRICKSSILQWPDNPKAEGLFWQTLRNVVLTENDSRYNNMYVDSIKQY

Cc1c(-c2[nH]c3sc(C4C[C@@H]5C[C@H]4CC5N4CCNC(=O)C4)c(C)c3c2C(C)C)cn2ncnc2c1C (stereo partly drawn) [Example 257]
EC50 (TLR8): 7.58 nM
EC50 (TLR7): 1.29 nM

Cc1cc(-c2[nH]c3sc(C4CCNCC4)c(CO)c3c2C(C)C)cn2ncnc12 [Example 258, (4-isopropyl-5-(8-methyl-[1,2,4]triazolo[1,5-a]pyridin-6-yl)-2-(piperidin-4-yl)-6H-thieno[2,3-b]pyrrol-3-yl)methanol]
EC50 (TLR8): 13.6 nM
EC50 (TLR7): 0.89 nM

COCc1c(C2CCNCC2)sc2[nH]c(-c3cc(C)c4ncnn4c3)c(C(C)C)c12 [Example 259, 4-isopropyl-3-(methoxymethyl)-5-(8-methyl-[1,2,4]triazolo[1,5-a]pyridin-6-yl)-2-(piperidin-4-yl)-6H-thieno[2,3-b]pyrrole]
EC50 (TLR8): 3.59 nM
EC50 (TLR7): 0.15 nM

Cc1cc(-c2[nH]c3sc(C4CCN(C(=O)[C@H]5COCCN5)CC4)c(CO)c3c2C(C)C)cn2ncnc12 [Example 260, (R)-(4-(3-(hydroxymethyl)-4-isopropyl-5-(8-methyl-[1,2,4]triazolo[1,5-a]pyridin-6-yl)-6H-thieno[2,3-b]pyrrol-2-yl)piperidin-1-yl)(morpholin-3-yl)methanone]
EC50 (TLR8): 27.3 nM
EC50 (TLR7): 0.31 nM

Cc1c(-c2[nH]c3sc([C@@H]4C[C@@H]5C[C@H]4CN5CC(=O)O)c(C)c3c2C(C)C)cn2ncnc2c1C [Example 264, 2-((1S,4R,5R)-5-(5-(7,8-dimethyl-[1,2,4]triazolo[1,5-a]pyridin-6-yl)-4 isopropyl-3-methyl-6H-thieno[2,3-b]pyrrol-2-yl)-2-azabicyclo[2.2.1]heptan-2-yl)acetic acid]
EC50 (TLR8): 13.7 nM
EC50 (TLR7): 2.52 nM

Cc1c(-c2[nH]c3sc([C@@H]4C[C@@H]5C[C@H]4CN5CC(=O)N4CC(O)C4)c(C)c3c2C(C)C)cn2ncnc2c1C [Example 265, 2-((1S,4R,5R)-5-(5-(7,8-dimethyl-[1,2,4]triazolo[1,5-a]pyridin-6-yl)-4 isopropyl-3-methyl-6H-thieno[2,3-b]pyrrol-2-yl)-2-azabicyclo[2.2.1]heptan-2-yl)-1-(3-hydroxyazetidin-1-yl)ethan-1-one]
EC50 (TLR8): 0.83 nM
EC50 (TLR7): 0.97 nM

Cc1c(-c2[nH]c3sc([C@@H]4C[C@@H]5C[C@H]4CN5CC(=O)N(C)CCO)c(C)c3c2C(C)C)cn2ncnc2c1C [Example 266]
EC50 (TLR8): 0.33 nM
EC50 (TLR7): 1.27 nM

Cc1c(-c2[nH]c3sc([C@@H]4C[C@@H]5C[C@H]4CN5CC(=O)NCCO)c(C)c3c2C(C)C)cn2ncnc2c1C [Example 267]
EC50 (TLR8): 0.15 nM
EC50 (TLR7): 0.47 nM

Cc1c(-c2[nH]c3sc(C4C[C@@H]5C[C@H]4CN5CC(=O)N4CCC4)c(C)c3c2C(C)C)cn2ncnc2c1C (stereo partly drawn) [Example 268]
EC50 (TLR8): 0.24 nM
EC50 (TLR7): < 0.05 nM

Cc1c(-c2[nH]c3sc([C@@H]4C[C@@H]5C[C@H]4CN5CC(=O)N[C@H]4C[C@@H](O)C4)c(C)c3c2C(C)C)cn2ncnc2c1C [Example 269]
EC50 (TLR8): 0.28 nM
EC50 (TLR7): 0.3 nM

Cc1c(-c2[nH]c3sc([C@@H]4C[C@@H]5C[C@H]4CN5CC(=O)N[C@H]4C[C@H](O)C4)c(C)c3c2C(C)C)cn2ncnc2c1C [Example 270]
EC50 (TLR8): 0.59 nM
EC50 (TLR7): 0.64 nM

Cc1c(-c2[nH]c3sc([C@@H]4C[C@@H]5C[C@H]4CN5CC(=O)NC45CC(O)(C4)C5)c(C)c3c2C(C)C)cn2ncnc2c1C [Example 271]
EC50 (TLR8): 0.12 nM
EC50 (TLR7): 0.49 nM

COCCNC(=O)CN1C[C@@H]2C[C@H]1C[C@H]2c1sc2[nH]c(-c3cn4ncnc4c(C)c3C)c(C(C)C)c2c1C [Example 272]
EC50 (TLR8): 1.19 nM
EC50 (TLR7): 2.13 nM

Cc1c(-c2[nH]c3sc([C@@H]4C[C@@H]5C[C@H]4CN5CC(=O)NC[C@@H](F)C(C)(C)O)c(C)c3c2C(C)C)cn2ncnc2c1C [Example 273]
EC50 (TLR8): 1.01 nM
EC50 (TLR7): 1.24 nM

Cc1c(-c2[nH]c3sc([C@@H]4C[C@@H]5C[C@H]4CN5CC(=O)NC4COC4)c(C)c3c2C(C)C)cn2ncnc2c1C [Example 274]
EC50 (TLR8): 1.23 nM
EC50 (TLR7): 1.54 nM
